Results as given in article PMC5622107, “Small molecule inhibition of cGAS reduces interferon expression in primary macrophages from autoimmune mice” (Nature Communications, 2017).
Read-outs that look alike come from different tables or passages of the source.

What was measured:
mouse cGAS = target: T1, mouse cGAS (Mus musculus, UniProt Q8C6L5); test: RapidFire mass spectrometry (RF-MS) cGAS enzymatic assay, cGAMP product formation; assay type: biochemical; conditions: for kcat / Km: substrate of mouse cGAS, no inhibitor; for Km: allosteric sigmoidal fitting; for inhibition at 12.5 µM: read-out: % inhibition at 12.5 µM; for effect of structural modification on cGAS inhibitory potency: compared with RU.365
T1 construct: recombinant full-length mouse cGAS in reaction buffer; His6-SUMO (N, cleaved yes); made in house; host or cells: E. coli BL21(DE3) RIL
Description: The liquid was collected at the well bottom using centrifugation for 30 s at 180×g. […] Plates were centrifuged for 30 s at 180×g to collect all liquid at the bottom of the wells. […] The reaction was stopped by addition of 65 µl of 0.5% (v/v) formic acid per well. The plates were centrifuged for 30 s at 180×g and sealed with a Velocity11 PlateLoc thermal plate sealer.
The solvent used for loading/washing process was an aqueous solution of 5 mM ammonium acetate, pH 10. […] Each sample of approximately 35 µl were aspirated from a 384-well plate and separated using a Graphitic carbon Type D cartridge. After each sample was loaded onto the cartridge it was washed for 4 s at 1.5 ml min^−1 using the aqueous solvent. ATP, GTP and cGAMP were eluted for 5 s using the organic solvent at a flow rate of 1.5 ml min^−1. The cartridge was then re-equilibrated with the aqueous solvent for 5 s at a flow rate of 1.5 ml min^−1. All samples were analyzed using a negative ionization mode in the mass spectrometer, with a gas temperature of 350 °C, nebulizer pressure of 35 psig, gas flow rate of 15 l min^−1. […] The Agilent RapidFire Integrator software was used to calculate the area under the curve (AUC) of the extracted ion counts for each analyte. Data points represent values of product formation. Catalytic rates expressed as percent product formation were calculated using the AUC of cGAMP and using the AUC’s of ATP and GTP to normalize for variations in the capacity of the solid phase extraction column during a screening run, as shown in the following formula: product formation (%) = [(AUCcGAMP × 100)/(AUCcGAMP + ½ AUCATP + ½ AUCGTP)].
To determine the percent inhibition of mouse cGAS the data was normalized against the positive control (column 24) and negative control (column 23). […] The quality of the screen was assessed by Z′ factor[57] calculated as follows: Z′ = 1−[3∗(standard deviation positive control + standard deviation negative control)/(average positive control—average negative control)].

45-bp dsDNA = test: DNA intercalation: acridine orange displacement from dsDNA by fluorescence polarization; assay type: binding; conditions: Supplementary Table 2; for % intercalation at 30 µM: acridine orange displacement compared to mitoxantrone; for Polarization: compound 30 µM
Description: Ten microliters of HEN buffer (10 mM HEPES pH 7.5, 1 mM EDTA pH 7.5, 100 mM NaCl) were dispensed per well using a Thermo Multidrop Combi dispenser (Thermo Scientific). The liquid was collected at the well bottom using centrifugation for 30 s at 180×g. […] The final concentration of compounds in the assay was 30 µM. […] The liquid was collected at the well bottom using centrifugation for 30 s at 180×g. […] The liquid was collected at the well bottom using centrifugation for 30 s at 180 × g and the plates were incubated for 30 min. Mitoxantrone, a known DNA intercalator was used at 50 µM as a positive control, while DMSO alone was used as negative control. FP was measured using a Biotek Synergy Neo plate reader. […] All FP values are expressed in millipolarization (mP) units. The mP values were calculated using the equation mP = 1000 × [(I S−I SB)−(I P−I PB)]/[I S—I SB) + (I P−I PB)], where I S and […] to the parallel and perpendicular emission intensity, respectively, and I SB and I SP corresponds to parallel emission intensity perpendicular emission intensity of the buffer, respectively. The experimental G-factor, defined as G = I S/I P, was set to 1.0 in all experiments.

[1] = Supplementary Table 2, batch of compounds stored in the screening library, read-out: IC50
[2] = Supplementary Table 2, compound 12.5 µM
[3] = Supplementary Table 4, analogs of RU166365, m-cGAS inhibition, read-out: IC50
[4] = Supplementary Table 3, analogs more potent than RU166365, read-out: IC50

T1 sequence (Q8C6L5 whole entry): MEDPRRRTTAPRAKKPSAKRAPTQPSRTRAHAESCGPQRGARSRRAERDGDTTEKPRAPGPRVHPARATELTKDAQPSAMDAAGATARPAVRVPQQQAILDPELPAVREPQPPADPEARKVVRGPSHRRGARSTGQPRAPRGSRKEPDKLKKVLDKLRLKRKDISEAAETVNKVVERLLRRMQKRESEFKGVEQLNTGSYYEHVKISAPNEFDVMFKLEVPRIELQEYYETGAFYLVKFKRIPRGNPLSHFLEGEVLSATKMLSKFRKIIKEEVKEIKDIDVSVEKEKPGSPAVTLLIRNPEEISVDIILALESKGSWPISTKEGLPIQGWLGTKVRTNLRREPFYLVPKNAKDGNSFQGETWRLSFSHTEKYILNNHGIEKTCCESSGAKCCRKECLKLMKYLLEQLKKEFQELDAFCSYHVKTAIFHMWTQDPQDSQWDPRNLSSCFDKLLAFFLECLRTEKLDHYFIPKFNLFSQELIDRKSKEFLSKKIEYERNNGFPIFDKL

| IC50 (mouse cGAS; [1]) [nM] | IC50 (mouse cGAS; [3]) [nM] | SMILES | % intercalation at 30 µM (45-bp dsDNA) [%] | Polarization (45-bp dsDNA) [mP] | further results |
| --- | --- | --- | --- | --- | --- |
| – | – | Nc1ncnc2c1ncn2[C@@H]1O[C@H](COP(=O)(O)OP(=O)(O)OP(=O)(O)O)[C@@H](O)[C@H]1O [ATP] | – | – | kcat (mouse cGAS): 0.383 s⁻¹; Km (mouse cGAS): 86 ± 6.7 µM |
| – | – | Nc1nc2c(ncn2[C@@H]2O[C@H](COP(=O)(O)OP(=O)(O)OP(=O)(O)O)[C@@H](O)[C@H]2O)c(=O)[nH]1 [GTP] | – | – | kcat (mouse cGAS): 0.383 s⁻¹; Km (mouse cGAS): 96.4 ± 5.1 µM |
| – | – | Oc1c(Cl)cc(Cl)c(Cl)c1Cc1c(O)c(Cl)cc(Cl)c1Cl [RU161] | 69.6 | 108 | IC50 (mouse cGAS): 390 nM; inhibition at 12.5 µM (mouse cGAS): 93% |
| 800 | – | COC(=O)C1=C(C)NC(C)=C(C(=O)OC)C1c1ccccc1[N+](=O)[O-] [RU199] | – | – | inhibition at 12.5 µM (mouse cGAS; [2]): 91% |
| – | – | O=[N+]([O-])c1cc([As](=O)(O)O)ccc1O [RU297] | -9.8 | 271 | – |
| 2830 | – | Nc1c2ccccc2nc2ccccc12 [RU431] | – | 145 | inhibition at 12.5 µM (mouse cGAS; [2]): 78% |
| 720 | – | O=C1c2c(O)ccc(O)c2C(=O)c2c(NCCNCCO)ccc(NCCNCCO)c21 [RU627] | 102.5 | 41 | inhibition at 12.5 µM (mouse cGAS; [2]): 94% |
| 8760 | – | O=C(O)c1cc(O)c2c(c1)[C@@H]([C@H]1c3cc(C(=O)O)cc(O)c3C(=O)c3c(O[C@H]4O[C@H](CO)[C@@H](O)[C@H](O)[C@H]4O)cccc31)c1cccc(O[C@H]3O[C@H](CO)[C@@H](O)[C@H](O)[C@H]3O)c1C2=O [RU646] | -13.5 | 278 | inhibition at 12.5 µM (mouse cGAS; [2]): 82% |
| – | – | O=[N+]([O-])c1ccc(O)c([N+](=O)[O-])c1 [RU803] | -4.7 | 260 | IC50 (mouse cGAS): 870 nM; inhibition at 12.5 µM (mouse cGAS): 96% |
| 6800 | – | CCN(CC)CCNc1ccc(CO)c2sc3ccccc3c(=O)c12 [RU869] | 81.2 | 85 | inhibition at 12.5 µM (mouse cGAS; [2]): 66% |
| – | > 25000 | CCCc1c(C)nn(-c2nc3ccccc3[nH]2)c1O [RU166418] | – | – | – |
| – | – | CC(C)c1ccc2oc3nc(N)c(C(=O)O)cc3c(=O)c2c1 [RU185491] | 1.5 | 248 | – |
| – | > 25000 | Cc1ccc(-c2cc(O)n(-c3nc4ccccc4[nH]3)n2)cc1 [RU281319] | – | – | – |
| – | > 25000 | Cc1cc(O)n(-c2nc3ccccc3[nH]2)n1 [RU281324] | – | – | – |
| – | 7340 | COc1ccc2nc(-n3nc(C)c(C4OC(=O)c5ccccc54)c3O)[nH]c2c1 (stereo not drawn) [RU320459] | – | – | – |
| – | 5610 | COc1cccc2nc(-n3nc(C)c(C4OC(=O)c5ccccc54)c3O)[nH]c12 (stereo not drawn) [RU320460] | – | – | – |
| – | – | Cc1ccc2nc(-n3nc(C)c(C4OC(=O)c5ccccc54)c3O)[nH]c2c1 (stereo not drawn) [RU320461] | – | – | IC50 (mouse cGAS; [4]): 860 nM; effect of structural modification on cGAS inhibitory potency (mouse cGAS): increased inhibitory potency |
| – | – | Cc1nn(-c2nc3ccc(Br)cc3[nH]2)c(O)c1C1OC(=O)c2ccccc21 (stereo not drawn) [RU320462] | – | – | IC50 (mouse cGAS; [4]): 640 nM; effect of structural modification on cGAS inhibitory potency (mouse cGAS): increased inhibitory potency |
| – | 2760 | Cc1nn(-c2nc3ccccc3[nH]2)c(O)c1C1OC(=O)c2c(Br)cccc21 (stereo not drawn) [RU320463] | – | – | – |
| – | 2240 | Cc1nn(-c2nc3ccccc3[nH]2)c(O)c1C1OC(=O)c2ccc(Br)cc21 (stereo not drawn) [RU320464] | – | – | – |
| – | > 25000 | Cc1nn(-c2nc3ccccc3[nH]2)c(O)c1C1NC(=O)c2ccccc21 (stereo not drawn) [RU320465] | – | – | effect of structural modification on cGAS inhibitory potency (mouse cGAS): abolished inhibitory activity |

| SMILES | IC50 (mouse cGAS; [1]) [nM] | IC50 (mouse cGAS; [3]) [nM] | % intercalation at 30 µM (45-bp dsDNA) [%] | Polarization (45-bp dsDNA) [mP] | further results |
| --- | --- | --- | --- | --- | --- |
| CCN(CC)CCCC(C)Nc1c2ccc(Cl)cc2nc2ccc(OC)cc12 (stereo not drawn) [RU316] | 6220 | – | – | 140 | % inhibition at 12.5 µM (mouse cGAS; [2]): 68% |
| CC[n+]1c(-c2ccccc2)c2cc(N)ccc2c2ccc(N)cc21 [RU662] | 430 | – | 101.9 | 42 | inhibition at 12.5 µM (mouse cGAS; [2]): 97% |
| C[n+]1cc2c3c(ccc2c2ccc4cc5c(cc4c21)OCO5)OCO3 [RU871] | 3370 | – | 95.0 | 56 | inhibition at 12.5 µM (mouse cGAS; [2]): 85% |
